According to PMC11435065, “Inhibition of P-Glycoprotein Asymmetrically Alters the In Vivo Exposure Profile of SGC003F: A Novel Guanylate Cyclase Stimulator” (Pharmaceuticals, 2024):
“And” between values parts separate entries of the source, which are not always exact repeats. Identical values can stand only once. Like-named read-outs stand apart in the source and are kept apart here.

Legend:
[1] = Urinary and fecal cumulative excretion of SGC003F in rats with or without tariquidar; format: in vivo; conditions: rat, SGC003F p.o. 1 mg/kg; for dose excreted: male, SD, urine and faeces
Procedure: In total, 18 male SD rats were randomly divided into three groups, with 6 rats in each group. Group I: SGC003F (p.o., 1 mg/kg) + blank vehicle (control group); Group Ⅱ: SGC003F (p.o., 1 mg/kg) + tariquidar (i.v., 7.5 mg/kg); Group III: SGC003F (p.o., 1 mg/kg) + tariquidar (p.o., 15 mg/kg). The rats were fasted for 12 h before oral administration. After administration, the rats were placed immediately in a metabolic cage and resumed feeding for 2 h. Urine and fecal samples were collected at 0–4, 4–8, 8–12, 12–24, 24–36, 36–48, 48–72, 72–96, and 96–120 h after administration. Fecal samples were homogenized with acetonitrile at a ratio of 1:4 (w/v) and stored at −40 °C for analysis.

[2] = In vitro metabolic stability in human liver microsomes; format: in vitro ADME; conditions: 1 µM, up to 60 min, NADPH or UDPGA
Procedure: (§1) In vitro incubation dependent on NADPH: SGC003F was added into rat and human liver microsomes diluted in PBS (100 mM, pH 7.3). NADPH was introduced into the system. The NADPH had been pre-equilibrated under the same conditions for 5 min to initiate the enzymatic reaction. The incubation mixture was meticulously prepared to achieve the following final concentrations: 1 µM for SGC003F, 0.5 mg/mL for the liver microsomal protein, and 1 mM for NADPH.
(§2) In vitro incubation dependent on UDPGA: rat and human liver microsomes diluted in PBS (100 mM, pH 7.3) were mixed with alamethicin and then placed on ice for 15 min before the addition of the working solution of SGC003F. After preincubation in a water bath at 37 °C for 5 min, UDPGA, which had been preincubated for 5 min was added to initiate the reaction. The final concentrations in the incubation system were as follows: 1 μM for SGC003F, 0.5 mg/mL for liver microsomal protein concentration, 5 mM for UDPGA, and 25 μg/mL for alamethicin.
(§3) Positive probe substrate assays were utilized to ensure normal activity of the incubation system. […] Finally, 60 μL supernatant was taken and diluted with 60 μL of 50% acetonitrile before being analyzed by LC-MS/MS.

[3] = In vitro metabolic stability in rat liver microsomes; format: in vitro ADME; conditions: 1 µM, up to 60 min, NADPH or UDPGA
Procedure: as §1, §2, §3

[4] = Tissue distribution of SGC003F in rats with or without tariquidar; format: in vivo; conditions: male, SD, rat, SGC003F p.o. 1 mg/kg
Procedure: A total of 45 male SD rats were randomly divided into 15 groups, with 3 rats in each group; each set of 5 groups constituted a larger group. The first large group served as the control group: SGC003F (p.o., 1 mg/kg) + blank solvent; the second large group was designated as experimental Group I: SGC003F (p.o., 1 mg/kg) + tariquidar (i.v., 7.5 mg/kg); the third group was labeled as Group II: SGC003F (p.o., 1 mg/kg) + tariquidar (p.o., 15 mg/kg). The rats in each group were euthanized at 0.5 h, 1 h, 2 h, 4 h, and 24 h after administration. Blood samples were collected by cardiac puncture and placed in heparin tubes. The plasma was harvested by centrifugation at 2500× g for 10 min at 4 °C. Major organs (brain, heart, liver, kidney, and small intestine) were collected and homogenized with saline at a ratio of 1:4 (w/v). All samples were stored at −40 °C for further analysis.
The tissue plasma partition coefficient at individual time point (KP1) was calculated by the ratio of the tissue concentration to the plasma concentration at each time point, as described in Equation (3) KP1 = Ctissue/Cplasma(3)
The overall tissue plasma partition coefficient (KP2) was calculated by the ratio of the area under the tissue drug-time curve to the area under the plasma drug–time curve, as described in Equation (4) KP2 = AUC(0-t, tissue)/AUC(0-t, plasma)(4)

[5] = single, within 120 h, parent drug
[6] = tariquidar i.v. 7.5 mg/kg, 120 h
[7] = tariquidar p.o. 15 mg/kg, 120 h
[8] = with tariquidar i.v. 7.5 mg/kg, 120 h
[9] = with tariquidar p.o. 15 mg/kg, 120 h

Compound: COC(=O)Nc1c(N)nc(-c2nn(Cc3sccc3F)c3ncc(F)cc23)nc1N [SGC003F]
- dose excreted ([1]; oral, with tariquidar i.v. 7.5 mg/kg, 120 h, read-out: U + F (total urinary and fecal recovery)): 37.9 ± 5.99%
- dose excreted ([1]; oral, with tariquidar p.o. 15 mg/kg, 120 h, read-out: U + F (total urinary and fecal recovery)): 36.7 ± 3.36%
- dose excreted ([1]; po, 1 mg/kg, single, within 120 h, read-out: U + F (total urinary and fecal recovery of parent drug)): 71.5 ± 15.1%
- Total cumulative urinary and fecal excretion relative to control group ([1]; after co-administration of tariquidar): 50%
- F (cumulative fecal excretion) [1, 5]: 59.5 ± 14.4%
- U (cumulative urinary excretion) [1, 5]: 11.9 ± 1.36%
- F (fecal), Ratio 1 (with Tar (i.v.)/single) [1, 6]: 0.32
- U + F, Ratio 1 (with Tar (i.v.)/single) [1, 6]: 0.53
- U, Ratio 1 (with Tar (i.v.)/single) [1, 6]: 1.56
- F (fecal), Ratio 2 (with Tar (p.o.)/single) [1, 7]: 0.19
- U + F, Ratio 2 (with Tar (p.o.)/single) [1, 7]: 0.51
- U, Ratio 2 (with Tar (p.o.)/single) [1, 7]: 2.13
- F (cumulative fecal excretion) [1, 8]: 19.3% and 19.3 ± 2.31 %
- U (cumulative urinary excretion) [1, 8]: 18.6% and 18.6 ± 4.37%
- F (cumulative fecal excretion) [1, 9]: 11.5% and 11.5 ± 2.61 %
- U (cumulative urinary excretion) [1, 9]: 25.3% and 25.3 ± 1.62%
- Metabolic stability (percentage of drug remaining over time) [2]: no significant metabolic elimination
- Metabolic stability (percentage of drug remaining over time) [3]: no significant metabolic elimination
- Kp ([4]; brain, oral, with tariquidar i.v. 7.5 mg/kg, read-out: KP2, Brain): 0.004
- Kp ([4]; brain, oral, with tariquidar p.o. 15 mg/kg, read-out: KP2, Brain): 0.004
- AUC(0-t) ([4]; brain, po, 1 mg/kg, single, read-out: AUC(0–24h), Brain): 13.1 ± 2.66 ng·h/mL
- AUC(0-t) ([4]; brain, po, 1 mg/kg, with tariquidar i.v. 7.5 mg/kg, read-out: AUC(0–24h), Brain): 31.2 ± 10.9 ng·h/mL
- AUC(0-t) ([4]; brain, po, 1 mg/kg, with tariquidar p.o. 15 mg/kg, read-out: AUC(0–24h), Brain): 41.5 ± 14.8 ng·h/mL
- Kp ([4]; heart, oral, with tariquidar i.v. 7.5 mg/kg, read-out: KP2, Heart): 0.4 ± 0.02
- Kp ([4]; heart, oral, with tariquidar p.o. 15 mg/kg, read-out: KP2, Heart): 0.45 ± 0.09
- AUC(0-t) ([4]; heart, po, 1 mg/kg, single, read-out: AUC(0–24h), Heart): 2370 ± 346 ng·h/mL
- Kp ([4]; heart, po, 1 mg/kg, single, read-out: KP2 (tissue/plasma AUC), Heart): 0.45 ± 0.04
- AUC(0-t) ([4]; heart, po, 1 mg/kg, with tariquidar i.v. 7.5 mg/kg, read-out: AUC(0–24h), Heart): 3060 ± 619 ng·h/mL
- AUC(0-t) ([4]; heart, po, 1 mg/kg, with tariquidar p.o. 15 mg/kg, read-out: AUC(0–24h), Heart): 4750 ± 1820 ng·h/mL
- AUC(0-t) ([4]; kidney, po, 1 mg/kg, single, read-out: AUC(0–24h), Kidney): 5990 ± 2170 ng·h/mL
- AUC(0-t) ([4]; kidney, po, 1 mg/kg, with tariquidar i.v. 7.5 mg/kg, read-out: AUC(0–24h), Kidney): 7870 ± 1570 ng·h/mL
- AUC(0-t) ([4]; kidney, po, 1 mg/kg, with tariquidar p.o. 15 mg/kg, read-out: AUC(0–24h), Kidney): 11900 ng·h/mL
- AUC(0-t) ([4]; liver, po, 1 mg/kg, single, read-out: AUC(0–24h), Liver): 4870 ± 1050 ng·h/mL
- AUC(0-t) ([4]; liver, po, 1 mg/kg, with tariquidar i.v. 7.5 mg/kg, read-out: AUC(0–24h), Liver): 6360 ± 283 ng·h/mL
- AUC(0-t) ([4]; liver, po, 1 mg/kg, with tariquidar p.o. 15 mg/kg, read-out: AUC(0–24h), Liver): 9600 ± 1820 ng·h/mL
- AUC(0-t) ([4]; plasma, po, 1 mg/kg, single, read-out: AUC(0–24h), Plasma): 5310 ± 798 ng·h/mL
